Results from patent publication US11730720B2, “ALK5 inhibitors” (THERAVANCE BIOPHARMA R&D IP, LLC, priority 2018, dated 2023).

Key:
[1] = biological target: T1, recombinant human ALK5 (TGF-βR1) protein (Homo sapiens, UniProt P36897); assay: Biochemical ALK5 (TGF-βR1) assay to measure pKi (LANCE Ultra ULight kinase assay); details: apparent pKi, converted from pIC50 using the Cheng-Prusoff equation
T1 construct: purchased Life Technologies PR9075A
T1 sequence (P36897 34-503): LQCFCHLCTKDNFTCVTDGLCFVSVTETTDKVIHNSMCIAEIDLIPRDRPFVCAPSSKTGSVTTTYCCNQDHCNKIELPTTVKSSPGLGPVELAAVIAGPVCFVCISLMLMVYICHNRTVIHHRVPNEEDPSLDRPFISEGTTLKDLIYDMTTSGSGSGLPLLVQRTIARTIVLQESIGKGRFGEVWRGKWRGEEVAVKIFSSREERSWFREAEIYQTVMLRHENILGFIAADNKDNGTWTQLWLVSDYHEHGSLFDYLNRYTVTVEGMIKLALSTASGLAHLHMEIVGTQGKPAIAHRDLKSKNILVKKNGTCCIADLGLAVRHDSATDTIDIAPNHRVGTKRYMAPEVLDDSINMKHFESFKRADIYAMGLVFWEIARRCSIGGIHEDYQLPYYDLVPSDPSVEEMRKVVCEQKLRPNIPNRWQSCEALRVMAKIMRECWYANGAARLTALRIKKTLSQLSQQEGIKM
Procedure, shortened: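 TR-FRET kinase format: compound dose range 10 μM–25 pM equilibrated 60 min with human ALK5 and ULight-labelled topoisomerase 2α peptide in HEPES/MgCl2 buffer pH 7.5 with DTT. Reaction started with ATP (125 μM stock, 5× final), 60 min at 37° C, stopped with EDTA/Eu-anti-phospho antibody; pKi derived from pIC50 via Cheng-Prusoff.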

[2] = test system: TGF-β-stimulated SMAD3 phosphorylation in BEAS-2B cells; assay: Cellular ALK5 potency assay, inhibition of TGF-β stimulated pSMAD3 formation in BEAS-2B cells; format: cell-based; details: Homo sapiens, inhibition of TGF-β (10 ng/mL) stimulated pSMAD3 formation, 1 hour compound incubation, read-out: BEAS2B pIC50 (converted)
Procedure, shortened: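 Phospho-SMAD3 was quantified by AlphaLISA in lysates of human lung epithelial BEAS-2B cells. Compound was added 1 h (37 °C, HEPES/BSA-supplemented HBSS) before a 30 min challenge with 10 ng/mL TGF-β. Values are pIC50 relative to stimulated cells without compound.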

CC(C)N1CCN(c2ccc(Nc3cnc4ccc(-c5nc[nH]c5-c5cc(Cl)ccc5F)nc4c3)nc2)CC1 [Compound 2-5, 6-(5-(5-chloro-2-fluorophenyl)-1H-imidazol-4-yl)-N-(5-(4-isopropylpiperazin-1-yl)pyridin-2-yl)-1,5-naphthyridin-3-amine]
Ki [1]: 0.0398 to 0.316 nM
IC50 [2]: 25.1 to 158 nM

CN(C)C1CCN(c2cnc3ccc(-c4nc[nH]c4-c4cc(Cl)ccc4F)nc3c2)CC1 [Compound 2-6, 1-(6-(5-(5-chloro-2-fluorophenyl)-1H-imidazol-4-yl)-1,5-naphthyridin-3-yl)-N,N-dimethylpiperidin-4-amine]
Ki [1]: 0.0398 to 0.316 nM
IC50 [2]: 25.1 to 158 nM

Fc1ccc(Cl)cc1-c1[nH]cnc1-c1ccc2ncc(N3CCCNCC3)cc2n1 [Compound 2-7, 2-[5-(5-chloro-2-fluoro-phenyl)-1H-imidazol-4-yl]-7-(1,4-diazepan-1-yl)-1,5-naphthyridine]
Ki [1]: 0.398 to 3.16 nM
IC50 [2]: 25.1 to 158 nM

Fc1ccc(Cl)cc1-c1[nH]cnc1-c1ccc2ncc(N3CCNCC3)cc2n1 [Compound 2-8, 2-[5-(5-chloro-2-fluoro-phenyl)-1H-imidazol-4-yl]-7-piperazin-1-yl-1,5-naphthyridine]
Ki [1]: 0.0398 to 0.316 nM
IC50 [2]: ≤ 20 nM

CNC1CCN(c2cnc3ccc(-c4nc[nH]c4-c4cc(Cl)ccc4F)nc3c2)CC1 [Compound 2-9, 1-[6-[5-(5-chloro-2-fluoro-phenyl)-1H-imidazol-4-yl]-1,5-naphthyridin-3-yl]-N-methyl-piperidin-4-amine]
Ki [1]: ≤ 0.0316 nM
IC50 [2]: 25.1 to 158 nM

CN1CCN(C2CCN(c3cnc4ccc(-c5nc[nH]c5-c5cc(Cl)ccc5F)nc4c3)CC2)CC1 [Compound 2-10, 2-[5-(5-chloro-2-fluoro-phenyl)-1H-imidazol-4-yl]-7-[4-(4-methylpiperazin-1-yl)-1-piperidyl]-1,5-naphthyridine]
Ki [1]: 0.0398 to 0.316 nM
IC50 [2]: 25.1 to 158 nM

O=C(O)[C@@H]1CN(c2cnc3ccc(-c4nc[nH]c4-c4cc(Cl)ccc4F)nc3c2)CCN1 [Compound 2-13, (S)-4-(6-(5-(5-chloro-2-fluorophenyl)-1H-imidazol-4-yl)-1,5-naphthyridin-3-yl)piperazine-2-carboxylic acid]
Ki [1]: 0.398 to 3.16 nM
IC50 [2]: 200 to 1260 nM

Fc1ccc(Cl)cc1-c1[nH]cnc1-c1ccc2ncc(N3CCn4nc(C5=CCNC5)nc4C3)cc2n1 [Compound 2-14, 2-(5-(5-chloro-2-fluorophenyl)-1H-imidazol-4-yl)-7-(2-(2,5-dihydro-1H-pyrrol-3-yl)-5,6-dihydro-[1,2,4]triazolo[1,5-a]pyrazin-7(8H)-yl)-1,5-naphthyridine]
Ki [1]: 0.0398 to 0.316 nM
IC50 [2]: 200 to 1260 nM

CN1CC=C(c2nc3n(n2)CCN(c2cnc4ccc(-c5nc[nH]c5-c5cc(Cl)ccc5F)nc4c2)C3)C1 [Compound 2-15, 2-(5-(5-chloro-2-fluorophenyl)-1H-imidazol-4-yl)-7-(2-(1-methyl-2,5-dihydro-1H-pyrrol-3-yl)-5,6-dihydro-[1,2,4]triazolo[1,5-a]pyrazin-7(8H)-yl)-1,5-naphthyridine]
Ki [1]: ≤ 0.0316 nM
IC50 [2]: 25.1 to 158 nM

CNCCn1ccc(-c2cnc3ccc(-c4nc[nH]c4-c4cc(Cl)ccc4F)nc3c2)n1 [Compound 2-16, 2-(3-(6-(5-(5-chloro-2-fluorophenyl)-1H-imidazol-4-yl)-1,5-naphthyridin-3-yl)-1H-pyrazol-1-yl)-N-methylethan-1-amine]
Ki [1]: 0.0398 to 0.316 nM
IC50 [2]: 25.1 to 158 nM

Fc1ccc(Cl)cc1-c1[nH]cnc1-c1ccc2ncc(-c3cn[nH]c3)cc2n1 [Compound 2-17, 2-[5-(5-chloro-2-fluoro-phenyl)-1H-imidazol-4-yl]-7-(1H-pyrazol-4-yl)-1,5-naphthyridine]
Ki [1]: 0.0398 to 0.316 nM
IC50 [2]: 25.1 to 158 nM

Fc1ccc(Cl)cc1-c1[nH]cnc1-c1ccc2ncc(-c3cnn(C4CCCNC4)c3)cc2n1 (stereo not shown) [Compound 2-18, 2-[5-(5-chloro-2-fluoro-phenyl)-1H-imidazol-4-yl]-7-[1-(3-piperidyl)pyrazol-4-yl]-1,5-naphthyridine]
Ki [1]: 0.0398 to 0.316 nM
IC50 [2]: 25.1 to 158 nM

CNCCn1cc(-c2cnc3ccc(-c4nc[nH]c4-c4cc(Cl)ccc4F)nc3c2)cn1 [Compound 2-19, 2-[4-[6-[5-(5-chloro-2-fluoro-phenyl)-1H-imidazol-4-yl]-1,5-naphthyridin-3-yl]pyrazol-1-yl]-N-methyl-ethanamine]
Ki [1]: 0.0398 to 0.316 nM
IC50 [2]: 25.1 to 158 nM

NCCn1cc(-c2cnc3ccc(-c4nc[nH]c4-c4cc(Cl)ccc4F)nc3c2)cn1 [Compound 2-20, 2-[4-[6-[5-(5-chloro-2-fluoro-phenyl)-1H-imidazol-4-yl]-1,5-naphthyridin-3-yl]pyrazol-1-yl]ethanamine]
Ki [1]: 0.0398 to 0.316 nM
IC50 [2]: 25.1 to 158 nM

Fc1ccc(Cl)cc1-c1[nH]cnc1-c1ccc2ncc(-c3cc4n(n3)CCNC4)cc2n1 [Compound 2-21, 2-(5-(5-chloro-2-fluorophenyl)-1H-imidazol-4-yl)-7-(4,5,6,7-tetrahydropyrazolo[1,5-a]pyrazin-2-yl)-1,5-naphthyridine]
Ki [1]: 0.0398 to 0.316 nM
IC50 [2]: 25.1 to 158 nM

Fc1ccc(Cl)cc1-c1[nH]cnc1-c1ccc2ncc(-c3cnn4c3CNCC4)cc2n1 [Compound 2-22, 2-[5-(5-chloro-2-fluoro-phenyl)-1H-imidazol-4-yl]-7-(4,5,6,7-tetrahydropyrazolo[1,5-a]pyrazin-3-yl)-1,5-naphthyridine]
Ki [1]: 0.0398 to 0.316 nM
IC50 [2]: 25.1 to 158 nM

Fc1ccc(Cl)cc1-c1[nH]cnc1-c1ccc2ncc(-c3nnn4c3CNCC4)cc2n1 [Compound 2-23, 2-[5-(5-chloro-2-fluoro-phenyl)-1H-imidazol-4-yl]-7-(4,5,6,7-tetrahydrotriazolo[1,5-a]pyrazin-3-yl)-1,5-naphthyridine]
Ki [1]: 0.0398 to 0.316 nM
IC50 [2]: 25.1 to 158 nM

Fc1ccc(Cl)cc1-c1[nH]cnc1-c1ccc2ncc(-c3cnc4n3CCNC4)cc2n1 [Compound 2-24, 2-[5-(5-chloro-2-fluoro-phenyl)-1H-imidazol-4-yl]-7-(5,6,7,8-tetrahydroimidazo[1,2-a]pyrazin-3-yl)-1,5-naphthyridine]
Ki [1]: 0.0398 to 0.316 nM
IC50 [2]: 25.1 to 158 nM

Fc1ccc(Cl)cc1-c1[nH]cnc1-c1ccc2ncc(-c3nc4n(n3)CCNC4)cc2n1 [Compound 2-25, 2-[5-(5-chloro-2-fluoro-phenyl)-1H-imidazol-4-yl]-7-(5,6,7,8-tetrahydro-[1,2,4]triazolo[1,5-a]pyrazin-2-yl)-1,5-naphthyridine]
Ki [1]: 0.0398 to 0.316 nM
IC50 [2]: 25.1 to 158 nM

Fc1ccc(Cl)cc1-c1[nH]cnc1-c1ccc2ncc(NCCN3CCCC3)cc2n1 [Compound 2-26, 6-[5-(5-chloro-2-fluoro-phenyl)-1H-imidazol-4-yl]-N-(2-pyrrolidin-1-ylethyl)-1,5-naphthyridin-3-amine]
Ki [1]: 0.0398 to 0.316 nM
IC50 [2]: ≤ 20 nM

Fc1ccc(Cl)cc1-c1[nH]cnc1-c1ccc2ncc(Nc3ccc(N4CCN(Cc5ccccc5)CC4)cn3)cc2n1 [Compound 2-27, N-[5-(4-benzylpiperazin-1-yl)-2-pyridyl]-6-[5-(5-chloro-2-fluoro-phenyl)-1H-imidazol-4-yl]-1,5-naphthyridin-3-amine]
Ki [1]: 3.98 to 31.6 nM
IC50 [2]: 25.1 to 158 nM

O=C(O)[C@H]1CN(c2cnc3ccc(-c4nc[nH]c4-c4cc(Cl)ccc4F)nc3c2)CCN1 [Compound 2-28, (2R)-4-[6-[5-(5-chloro-2-fluoro-phenyl)-1H-imidazol-4-yl]-1,5-naphthyridin-3-yl]piperazine-2-carboxylic acid]
Ki [1]: 0.398 to 3.16 nM
IC50 [2]: 200 to 1260 nM

C[C@@H]1CN(CCNc2cnc3ccc(-c4nc[nH]c4-c4cc(Cl)ccc4F)nc3c2)C[C@H](C)N1 [Compound 2-29, 6-(5-(5-chloro-2-fluorophenyl)-1H-imidazol-4-yl)-N-(2-((3S,5R)-3,5-dimethylpiperazin-1-yl)ethyl)-1,5-naphthyridin-3-amine]
Ki [1]: 0.0398 to 0.316 nM
IC50 [2]: 25.1 to 158 nM

Fc1ccc(Cl)cc1-c1[nH]cnc1-c1ccc2ncc(NC[C@@H]3CCCN3)cc2n1 [Compound 2-30, 6-[5-(5-chloro-2-fluoro-phenyl)-1H-imidazol-4-yl]-N-[[(2S)-pyrrolidin-2-yl]methyl]-1,5-naphthyridin-3-amine]
Ki [1]: 0.398 to 3.16 nM
IC50 [2]: 200 to 1260 nM

Fc1ccc(Cl)cc1-c1[nH]cnc1-c1ccc2ncc(NCC3CCCCN3)cc2n1 (stereo not shown) [Compound 2-31, 6-[5-(5-chloro-2-fluoro-phenyl)-1H-imidazol-4-yl]-N-(2-piperidylmethyl)-1,5-naphthyridin-3-amine]
Ki [1]: 0.398 to 3.16 nM
IC50 [2]: 25.1 to 158 nM

O=C(O)CC1CNCCN1c1cnc2ccc(-c3nc[nH]c3-c3cc(Cl)ccc3F)nc2c1 (stereo not shown) [Compound 2-32, 2-[1-[6-[5-(5-chloro-2-fluoro-phenyl)-1H-imidazol-4-yl]-1,5-naphthyridin-3-yl]piperazin-2-yl]acetic acid]
Ki [1]: 3.98 to 31.6 nM
IC50 [2]: 200 to 1260 nM
